# Results published in patent publication US20240059691A1 (KALVISTA PHARMACEUTICALS LIMITED, priority 2020, published 2024).
# Assays:
# Format in all cases: biochemical
# Human Factor XIIa = Human Factor XIIa (Homo sapiens (Human), UniProt P00748); assay: Determination of FXIIa inhibition (fluorogenic substrate H-DPro-Phe-Arg-AFC, IC50 assay); settings: substrate H-DPro-Phe-Arg-AFC at Km, 25° C.; for IC50: class scale A-G
# Procedure, shortened: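 IC50 derived from % remaining activity, taken as the linear fluorescence rate over a 5 min read at 25° C. Substrate H-DPro-Phe-Arg-AFC was used at its Km (Michaelis-Menten) with human FXIIa and serial compound dilutions, 25° C.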
# Plasma Kallikrein = Plasma Kallikrein (Homo sapiens (Human), UniProt P03952); assay: Determination of related protease inhibition: Plasma Kallikrein (fluorogenic substrate at Km); settings: 25° C., read-out: IC50 (human PKal)
# Procedure, shortened: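 Fluorescence release from a Km-level fluorogenic substrate, read for 5 min at 25 °C, gave the linear rate per minute for each inhibitor concentration. Rates were converted to % of uninhibited human enzyme activity; IC50 = inhibitor concentration producing 50% inhibition.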
# KLK1 = KLK1 (Homo sapiens (Human), UniProt P06870); assay: Determination of related protease inhibition: KLK1 (fluorogenic substrate at Km); settings: 25° C.
# Protocol: (§1) Determination of Related Protease Inhibition
# (§2) In vitro inhibition of related proteases was determined using an ([…] assay based on standard literature methods (see e.g. Shori et al., Biochem. Pharmacol., 1992, 43, 1209; Bouckaert et al., European Journal of Medicinal Chemistry 110 (2016) 181). Human serine protease enzymes Plasma Kallikrein, KLK1, FXa, Plasmin, Thrombin and Trypsin were assayed for enzymatic activity using an appropriate fluorogenic substrate at Km concentration, FXIa at fixed substrate concentration of 100 μM, and various concentrations of the test compound. Protease activity was measured by monitoring the accumulation of liberated fluorescence from the substrate over […]. The linear rate of fluorescence increase per minute was expressed as percentage (%) activity. IC50 values were calculated as the concentration of inhibitor giving 50% inhibition of the uninhibited enzyme activity (100%).
# FXa = FXa (Homo sapiens (Human), UniProt P00742); assay: Determination of related protease inhibition: FXa (fluorogenic substrate at Km); settings: 25° C.
# Protocol: as §1, §2
# Thrombin = Thrombin (Homo sapiens (Human), UniProt P00734); assay: Determination of related protease inhibition: Thrombin (fluorogenic substrate at Km); settings: 25° C.
# Protocol: as §1, §2
# Plasma Kallikrein, sequence (P03952 391-638): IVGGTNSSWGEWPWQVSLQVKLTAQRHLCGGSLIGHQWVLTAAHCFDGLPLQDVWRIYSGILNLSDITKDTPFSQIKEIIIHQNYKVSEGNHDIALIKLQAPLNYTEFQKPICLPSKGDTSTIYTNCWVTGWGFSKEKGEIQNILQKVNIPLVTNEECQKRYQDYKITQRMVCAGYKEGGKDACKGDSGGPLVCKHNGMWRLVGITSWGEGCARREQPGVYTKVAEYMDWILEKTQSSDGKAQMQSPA
# Plasma Kallikrein, sequence (P03952 20-390 partner): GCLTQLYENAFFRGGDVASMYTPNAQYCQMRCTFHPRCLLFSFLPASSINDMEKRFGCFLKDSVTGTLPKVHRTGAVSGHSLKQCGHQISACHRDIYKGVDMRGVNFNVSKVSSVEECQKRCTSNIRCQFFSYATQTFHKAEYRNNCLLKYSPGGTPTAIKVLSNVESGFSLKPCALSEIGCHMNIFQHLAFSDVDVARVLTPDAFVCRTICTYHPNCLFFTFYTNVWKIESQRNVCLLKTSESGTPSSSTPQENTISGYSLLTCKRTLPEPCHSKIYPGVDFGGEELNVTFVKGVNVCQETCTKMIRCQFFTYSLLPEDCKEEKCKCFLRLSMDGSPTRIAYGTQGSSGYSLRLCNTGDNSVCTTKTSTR
# FXa, sequence (P00742 235-488): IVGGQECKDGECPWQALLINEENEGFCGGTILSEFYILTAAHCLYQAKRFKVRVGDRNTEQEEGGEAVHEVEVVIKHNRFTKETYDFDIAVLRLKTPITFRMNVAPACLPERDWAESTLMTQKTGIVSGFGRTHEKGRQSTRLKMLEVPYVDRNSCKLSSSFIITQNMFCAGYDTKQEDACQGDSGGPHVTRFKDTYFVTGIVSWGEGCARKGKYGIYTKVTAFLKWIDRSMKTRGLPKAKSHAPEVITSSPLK
# FXa, sequence (P00742 41-179 partner): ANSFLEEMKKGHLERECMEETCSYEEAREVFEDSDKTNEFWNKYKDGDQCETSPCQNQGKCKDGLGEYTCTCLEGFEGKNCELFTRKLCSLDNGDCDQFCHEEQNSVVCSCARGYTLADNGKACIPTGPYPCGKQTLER
# KLK1, sequence (P06870 25-262): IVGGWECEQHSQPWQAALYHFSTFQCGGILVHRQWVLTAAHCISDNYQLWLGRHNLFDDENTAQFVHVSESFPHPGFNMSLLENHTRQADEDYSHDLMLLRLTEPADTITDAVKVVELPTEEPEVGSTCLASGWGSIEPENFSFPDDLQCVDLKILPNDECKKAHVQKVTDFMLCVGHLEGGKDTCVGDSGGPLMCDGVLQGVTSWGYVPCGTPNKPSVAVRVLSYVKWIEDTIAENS
# Human Factor XIIa, sequence (P00748 373-615): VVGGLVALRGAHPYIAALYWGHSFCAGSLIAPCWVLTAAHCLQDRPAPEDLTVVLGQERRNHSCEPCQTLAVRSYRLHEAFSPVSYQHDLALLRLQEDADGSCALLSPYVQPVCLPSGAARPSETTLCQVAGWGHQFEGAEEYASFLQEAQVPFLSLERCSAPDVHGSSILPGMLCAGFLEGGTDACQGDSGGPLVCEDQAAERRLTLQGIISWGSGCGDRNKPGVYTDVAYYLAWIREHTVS
IC50 (Human Factor XIIa) [µM],IC50 (Plasma Kallikrein) [µM],IC50 (KLK1) [µM],IC50 (FXa) [µM],IC50 (Thrombin) [µM],Compound,Human FXIIa IC50 (nM): test compounds that did not achieve 50% inhibition (Human Factor XIIa; class scale H1-H3 for compounds that did not achieve 50% inhibition)
1 to 3,> 40,10 to 40,> 40,,"Nc1nccc2c(NCc3ccc(N4CCn5c(nnc5C(F)(F)F)C4)nc3C(F)(F)F)cccc12 [Example 1298, N5-((2-(trifluoromethyl)-6-(3-(trifluoromethyl)-5,6-dihydro-[1,2,4]triazolo[4,3-a]pyrazin-7(8H)-yl)pyridin-3-yl)methyl)isoquinoline-1,5-diamine]",
3 to 10,,> 40,> 40,,"Nc1nccc2c(N3CCCC3c3ccc(N4CCn5c(nnc5C(F)(F)F)C4)nc3)cccc12 (single isomer, unassigned) [Example 10003, (S*)-5-(2-(6-(3-(trifluoromethyl)-5,6-dihydro-[1,2,4]triazolo[4,3-a]pyrazin-7(8H)-yl)pyridin-3-yl)pyrrolidin-1-yl)isoquinolin-1-amine]",
0.3 to 1,,3 to 10,> 40,,"CC1c2nnc(C(F)(F)F)n2CCN1c1ccc(CNc2cccc3c(N)nccc23)cn1 (centres unmarked) [Example 1285, N5-((6-(8-methyl-3-(trifluoromethyl)-5,6-dihydro-[1,2,4]triazolo[4,3-a]pyrazin-7(8H)-yl)pyridin-3-yl)methyl)isoquinoline-1,5-diamine]",
0.3 to 1,,3 to 10,> 40,,"Cc1nc(N2CCn3c(nnc3C(F)(F)F)C2)ccc1CNc1cccc2c(N)nccc12 [Example 1284, N5-((2-methyl-6-(3-(trifluoromethyl)-5,6-dihydro-[1,2,4]triazolo[4,3-a]pyrazin-7(8H)-yl)pyridin-3-yl)methyl)isoquinoline-1,5-diamine]",
0.01 to 0.1,10 to 40,3 to 10,> 40,,"CC1c2nnc(C(F)(F)F)n2CCN1c1ccc(CNc2cccc3c(N)nccc23)cn1 (single isomer, unassigned) [Example 1295, (S*)-N5-((6-(8-methyl-3-(trifluoromethyl)-5,6-dihydro-[1,2,4]triazolo[4,3-a]pyrazin-7(8H)-yl)pyridin-3-yl)methyl)isoquinoline-1,5-diamine]",
0.3 to 1,,10 to 40,> 40,,"Nc1nccc2c(N3CCCC3c3ccc(N4CCn5c(nnc5C(F)(F)F)C4)nc3)cccc12 (single isomer, unassigned) [Example 10004, (R*)-5-(2-(6-(3-(trifluoromethyl)-5,6-dihydro-[1,2,4]triazolo[4,3-a]pyrazin-7(8H)-yl)pyridin-3-yl)pyrrolidin-1-yl)isoquinolin-1-amine]",
10 to 40,> 40,3 to 10,> 40,,"CC1c2nnc(C(F)(F)F)n2CCN1c1ccc(CNc2cccc3c(N)nccc23)cn1 (single isomer, unassigned) [Example 1294, (R*)-N5-((6-(8-methyl-3-(trifluoromethyl)-5,6-dihydro-[1,2,4]triazolo[4,3-a]pyrazin-7(8H)-yl)pyridin-3-yl)methyl)isoquinoline-1,5-diamine]",
0.1 to 0.3,> 40,3 to 10,> 40,,"Nc1nccc2c(NCc3cnc(N4CCn5c(nnc5C(F)(F)F)C4)cc3C(F)(F)F)cccc12 [Example 1301, N5-((4-(trifluoromethyl)-6-(3-(trifluoromethyl)-5,6-dihydro-[1,2,4]triazolo[4,3-a]pyrazin-7(8H)-yl)pyridin-3-yl)methyl)isoquinoline-1,5-diamine]",
1 to 3,> 40,1 to 3,> 40,,"CC1CN(c2ccc(CNc3cccc4c(N)nccc34)cn2)Cc2nnc(C(F)(F)F)n21 (single isomer, unassigned) [Example 1297, (S*)-N5-((6-(5-methyl-3-(trifluoromethyl)-5,6-dihydro-[1,2,4]triazolo[4,3-a]pyrazin-7(8H)-yl)pyridin-3-yl)methyl)isoquinoline-1,5-diamine]",
0.3 to 1,,1 to 3,> 40,,"Cn1ncc2c1CCN(c1ccc(CNc3cccc4c(N)nccc34)cn1)C2 [Example 1286, N5-((6-(1-methyl-1,4,6,7-tetrahydro-5H-pyrazolo[4,3-c]pyridin-5-yl)pyridin-3-yl)methyl)isoquinoline-1,5-diamine]",
3 to 10,,10 to 40,> 40,,"CC(C)(O)c1cn(-c2ccc(CNc3cccc4c(N)nccc34)cn2)nn1 [Example 1291, 2-(1-(5-(((1-aminoisoquinolin-5-yl)amino)methyl)pyridin-2-yl)-1H-1,2,3-triazol-4-yl)propan-2-ol]",
0.1 to 0.3,> 40,3 to 10,> 40,,"Nc1nccc2c(NCc3ccc(N4CCn5c(nnc5C(F)(F)F)C4)cn3)cccc12 [Example 9001, N5-((5-(3-(trifluoromethyl)-5,6-dihydro-[1,2,4]triazolo[4,3-a]pyrazin-7(8H)-yl)pyridin-2-yl)methyl)isoquinoline-1,5-diamine]",
0.1 to 0.3,> 40,> 40,> 40,,"Cc1cc(N2CCn3c(nnc3C(F)(F)F)C2)nc(C)c1CNc1cccc2c(N)nccc12 [Example 9006, N5-((2,4-dimethyl-6-(3-(trifluoromethyl)-5,6-dihydro-[1,2,4]triazolo[4,3-a]pyrazin-7(8H)-yl)pyridin-3-yl)methyl)isoquinoline-1,5-diamine]",
0.01 to 0.1,> 40,3 to 10,> 40,,"Nc1nccc2c(NCc3cnc(N4CCn5c(nnc5C(F)(F)F)C4)cc3Cl)cccc12 [Example 1299, N5-((4-Chloro-6-(3-(trifluoromethyl)-5,6-dihydro-[1,2,4]triazolo[4,3-a]pyrazin-7(8H)-yl)pyridin-3-yl)methyl)isoquinoline-1,5-diamine]",
10 to 40,10 to 40,1 to 3,> 40,,"Cc1cc(CNc2cccc3c(N)nccc23)cnc1N1CCn2c(nnc2C(F)(F)F)C1 [Example 1302, N5-((5-methyl-6-(3-(trifluoromethyl)-5,6-dihydro-[1,2,4]triazolo[4,3-a]pyrazin-7(8H)-yl)pyridin-3-yl)methyl)isoquinoline-1,5-diamine]",
1 to 3,,1 to 3,> 40,,"CC1CN(c2ccc(CNc3cccc4c(N)nccc34)cn2)Cc2nnc(C(F)(F)F)n21 (centres unmarked) [Example 1287, N5-((6-(5-methyl-3-(trifluoromethyl)-5,6-dihydro-[1,2,4]triazolo[4,3-a]pyrazin-7(8H)-yl)pyridin-3-yl)methyl)isoquinoline-1,5-diamine]",
0.1 to 0.3,,0.3 to 1,1 to 3,0.3 to 1,"CN1CCC(COc2cc(CNc3ccc4c(N)nccc4c3)cc(C(F)(F)F)n2)CC1 [Example 4265, N6-((2-((1-methylpiperidin-4-yl)methoxy)-6-(trifluoromethyl)pyridin-4-yl)methyl)isoquinoline-1,6-diamine]",
1 to 3,,10 to 40,> 40,,"Nc1nccc2c(N3CCCC3c3ccc(N4CCn5c(nnc5C(F)(F)F)C4)nc3)cccc12 (racemic) [Example 10002, 5-(2-(6-(3-(Trifluoromethyl)-5,6-dihydro-[1,2,4]triazolo[4,3-a]pyrazin-7(8H)-yl)pyridin-3-yl)pyrrolidin-1-yl)isoquinolin-1-amine]",
,,> 100,> 40,,"FC(F)(F)c1nnc2n1CCN(c1ccc(CNc3ccn4ccnc4c3)cn1)C2 [Example 1288, N-((6-(3-(trifluoromethyl)-5,6-dihydro-[1,2,4]triazolo[4,3-a]pyrazin-7(8H)-yl)pyridin-3-yl)methyl)imidazo[1,2-a]pyridin-7-amine]",
1 to 3,10 to 40,3 to 10,> 40,,"CC1CN(c2ccc(CNc3cccc4c(N)nccc34)cn2)Cc2nnc(C(F)(F)F)n21 (single isomer, unassigned) [Example 1296, (R*)-N5-((6-(5-methyl-3-(trifluoromethyl)-5,6-dihydro-[1,2,4]triazolo[4,3-a]pyrazin-7(8H)-yl)468yridine-3-yl)methyl)isoquinoline-1,5-diamine]",
0.1 to 0.3,> 40,3 to 10,> 40,,"Nc1nccc2c(NCc3ccc(N4CCn5c(nnc5C(F)(F)F)C4)cc3)cccc12 [Example 1300, N5-(4-(3-(trifluoromethyl)-5,6-dihydro-[1,2,4]triazolo[4,3-a]pyrazin-7(8H)-yl)benzyl)isoquinoline-1,5-diamine]",

Compound,IC50 (Human Factor XIIa) [µM],IC50 (Plasma Kallikrein) [µM],IC50 (KLK1) [µM],IC50 (FXa) [µM],IC50 (Thrombin) [µM],Human FXIIa IC50 (nM): test compounds that did not achieve 50% inhibition (Human Factor XIIa; class scale H1-H3 for compounds that did not achieve 50% inhibition)
N#Cc1cc(NCc2ccc(N3CCn4c(nnc4C(F)(F)F)C3)nc2)c2cc(Cl)[nH]c2n1 [Example 1292],,,> 40,> 40,,H1 (>20% inhibition @ 40 μM)
